Legend:
Homo sapiens [1] = organism: Homo sapiens; assay: Nonrenal clearance in human at a loading dose of 1 g and maintenance dose of 1.2 g/h for 3 hrs; type: ADME, organism-based; details: in vivo
[2] = Terminal half life in human at 1000 mg, iv infused for 5 mins; type: ADME, organism-based; details: in vivo, read-out: beta t1/2 (converted)
Homo sapiens [3] = assay: Metabolic stability in human assessed as urinary excretion of unchanged drug level at 1000 mg, iv infused for 5 mins; type: ADME, organism-based, Urine; details: in vivo
[4] = Plasma concentration in human at 500 mg, iv infused for 5 mins; type: ADME, organism-based
[5] = Terminal half life in human at 500 mg, iv infused for 5 mins; type: ADME, organism-based; details: in vivo, read-out: beta t1/2 (converted)
Staphylococcus aureus [6] = assay: Bactericidal activity against methicillin-susceptible Staphylococcus aureus infected human at MIC of 0.75 mg/l at 2 g, iv administered every 8 hrs as 4 hrs infusion; type: functional
Staphylococcus aureus [7] = assay: Bactericidal activity against methicillin-susceptible Staphylococcus aureus infected human at MIC of 1 mg/l at 2 g, iv administered every 4 hrs as 0.5 hrs infusion; type: functional
Staphylococcus aureus [8] = assay: Bacteriostatic activity against methicillin-susceptible Staphylococcus aureus infected human at MIC of 1.5 mg/l at 2 g, iv administered every 8 hrs as 4 hrs infusions; type: functional
Staphylococcus aureus [9] = assay: Bacteriostatic activity against methicillin-susceptible Staphylococcus aureus infected human at MIC of 0.75 mg/l at 6 g, iv administered as continuous infusion for 4 hrs; type: functional
[10] = Total body clearance in human at 500 mg, iv infused for 5 mins; details: in vivo
Staphylococcus aureus [11] = assay: Bactericidal activity against methicillin-susceptible Staphylococcus aureus infected human at MIC of 0.25 mg/l at 1.5 g, iv administered every 6 hrs as 0.5 hrs infusion; type: functional
Staphylococcus aureus [12] = assay: Bacteriostatic activity against methicillin-susceptible Staphylococcus aureus infected human at MIC of 0.75 mg/l at 1.5 g, iv administered every 6 hrs as 0.5 hrs infusion; type: functional
[13] = Mean residence time in human at 1000 mg, iv infused for 5 mins; type: ADME, organism-based; details: in vivo
[14] = Renal clearance in human at 500 mg, iv infused for 5 mins; type: ADME, organism-based, Kidney; details: in vivo, read-out: CL_renal (converted)
[15] = Total clearance in human at 1 g, iv infused for 5 mins; details: in vivo
[16] = Renal clearance in human at 1000 mg, iv infused for 5 mins; type: ADME, organism-based, Kidney; details: in vivo, read-out: CL_renal (converted)
Staphylococcus aureus [17] = assay: Bactericidal activity against methicillin-susceptible Staphylococcus aureus infected human at MIC of 0.75 mg/l at 6 g, iv administered as continuous infusion for 4 hrs; type: functional
[18] = Plasma concentration in human at 1000 mg, iv infused for 5 mins; type: ADME, organism-based
[19] = Volume of distribution at steady state in human at 1000 mg, iv infused for 5 mins; type: ADME, organism-based; details: in vivo, read-out: Vdss
clinical = details: human, in vivo
Description: Total clearance in human at a loading dose of 1 g and maintenance dose of 1.2 g/h for 3 hrs

Homo sapiens [20] = assay: Metabolic stability in human assessed as urinary excretion of unchanged drug level at 500 mg, iv infused for 5 mins; type: ADME, organism-based, Urine; details: in vivo
[21] = Protein binding in human plasma; type: ADME, cell-free; details: read-out: PPB (converted)
Homo sapiens [22] = assay: Nonrenal clearance in human at 500 mg, iv infused for 5 mins; type: ADME, organism-based; details: in vivo
[23] = Total body clearance in human at 1000 mg, iv infused for 5 mins; details: in vivo
[24] = Volume of distribution at steady state in human at 500 mg, iv infused for 5 mins; type: ADME, organism-based; details: in vivo, read-out: Vdss
Homo sapiens [25] = assay: Nonrenal clearance in human at 1000 mg, iv infused for 5 mins; type: ADME, organism-based; details: in vivo
Staphylococcus aureus [26] = assay: Bacteriostatic activity against methicillin-susceptible Staphylococcus aureus infected human at MIC of 2 mg/l at 2 g, iv administered every 4 hrs as 0.5 hrs infusion; type: functional
[27] = Renal clearance in human at a loading dose of 1 g and maintenance dose of 1.2 g/h for 3 hrs; type: ADME, organism-based, Kidney; details: in vivo, iv, read-out: CL_renal (converted)
Staphylococcus aureus [28] = assay: Antibacterial activity against methicillin-susceptible Staphylococcus aureus; type: functional
[29] = Mean residence time in human at 500 mg, iv infused for 5 mins; type: ADME, organism-based; details: in vivo

- CL (Homo sapiens [1]): 2.1 L/h
- half-life [2]: 97.2 min
- Activity (Homo sapiens [3]): 0.65
- concentration at 5 min [4]: 86.8 µg/mL
- half-life [5]: 84 min
- fT>MIC (Staphylococcus aureus [8]): >=30%
- fT>MIC (Staphylococcus aureus [9]): >=30%
- clearance at 5 min [10]: 136 mL/min
- MRT [13]: 1.22 h
- CL renal at 5 min [14]: 89.5 mL/min
- clearance at 5 min [15]: 118 mL/min
- CL renal at 5 min [16]: 88.2 mL/min
- concentration at 5 min [18]: 167 µg/mL
- Vd [19]: 9.97 L
- clearance at 3 h (clinical): 123 mL/min
- Activity (Homo sapiens [20]): 0.66
- fraction unbound [21]: 0.054
- CL (Homo sapiens [22]): 2.72 L/h
- clearance at 5 min [23]: 136 mL/min
- Vd [24]: 9.63 L
- CL (Homo sapiens [25]): 2.79 L/h
- fT>MIC (Staphylococcus aureus [26]): >=30%
- CL renal at 3 h [27]: 88.3 mL/min
- MIC90 (Staphylococcus aureus [28]): ≤ 0.5 µg/mL
- MRT [29]: 1.18 h
SMILES: Cc1onc(-c2c(F)cccc2Cl)c1C(=O)N[C@@H]1C(=O)N2[C@@H]1SC(C)(C)[C@@H]2C(=O)O [FLOXACILLIN]
- fT>MIC (Staphylococcus aureus [6]): >=50%
- fT>MIC (Staphylococcus aureus [7]): >=50%
- fT>MIC (Staphylococcus aureus [11]): >=50%
- Activity (Staphylococcus aureus [12]): >30%
- fT>MIC (Staphylococcus aureus [17]): >=50%
